For the assay, the target named is T1, ERα (Homo sapiens, UniProt P03372).
T1 construct: host or cells: MCF7
T1 sequence (P03372 1-595): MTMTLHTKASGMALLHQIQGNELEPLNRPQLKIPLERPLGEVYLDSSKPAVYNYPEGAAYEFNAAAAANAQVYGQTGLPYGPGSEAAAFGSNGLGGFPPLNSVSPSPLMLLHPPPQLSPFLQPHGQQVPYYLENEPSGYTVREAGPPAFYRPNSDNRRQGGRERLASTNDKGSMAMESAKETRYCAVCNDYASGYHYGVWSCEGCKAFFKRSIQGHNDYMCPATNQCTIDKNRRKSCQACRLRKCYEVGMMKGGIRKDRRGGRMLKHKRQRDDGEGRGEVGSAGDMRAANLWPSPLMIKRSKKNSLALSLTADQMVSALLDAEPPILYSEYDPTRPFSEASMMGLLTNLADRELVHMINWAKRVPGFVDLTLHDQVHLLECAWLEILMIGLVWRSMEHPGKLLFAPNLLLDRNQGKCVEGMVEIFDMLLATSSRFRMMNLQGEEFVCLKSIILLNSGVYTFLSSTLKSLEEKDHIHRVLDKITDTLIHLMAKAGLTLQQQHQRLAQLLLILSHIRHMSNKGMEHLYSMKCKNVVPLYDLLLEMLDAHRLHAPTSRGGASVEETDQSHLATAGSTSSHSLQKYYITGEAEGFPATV
In words: Estrogen receptor degradation activity: breast cancer cell ERα in cell western assay (MCF7 cells). The conditions noted are these: for % Degradation At 0.3 μM: 4 hours, relative to fulvestrant 0.1 μM positive control; for DC50: 4 hours post compound addition, concentration which degrades 50% of the estrogen receptor, read-out: Degradation IC50. In kind it is cell-based. In outline: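 In-cell western readout: ERα immunofluorescence (Alexa 488) normalised to DNA signal (Syto-64) after formalin fixation. Compounds dosed for 4 h on MCF7 cells in stripped-serum, phenol-red-free medium over nine 1:5 steps, 0.3 to […] final; fulvestrant 0.1 μM control. IC50 in nM for 50% ERα degradation.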

In the case of `Cc1c(C#N)cccc1C1=C(c2ccc(C=C3CN(CCCF)C3)cc2)c2ccc(C(=O)O)cc2CCC1` [Example 91, 8-(3-cyano-2-methylphenyl)-9-(4-((1-(3-fluoropropyl)azetidin-3-ylidene)methyl)phenyl)-6,7-dihydro-5H-benzo[7]annulene-3-carboxylic acid], the “% Degradation At 0.3 μM” value was determined as 87% and the DC50 turned out to be 0.9 nM.
For `Cl.O=C(O)c1ccc2c(c1)CCCC(c1ccc(Cl)cc1Cl)=C2c1cc(F)c(C=C2CN(CCCF)C2)cc1F` [Example 92, 8-(2,4-dichlorophenyl)-9-(2,5-difluoro-4-((1-(3-fluoropropyl)azetidin-3-ylidene)methyl)phenyl)-6,7-dihydro-5H-benzo[7]annulene-3-carboxylic acid hydrochloride], in that order: 98% and 0.3 nM.
On to `Cc1cc(C=C2CN(CCCF)C2)ccc1C1=C(c2ccc(Cl)cc2Cl)CCCc2cc(C(=O)O)ccc21.Cl` [Example 93, 8-(2,4-dichlorophenyl)-9-(4-((1-(3-fluoropropyl)azetidin-3-ylidene)methyl)-2-methylphenyl)-6,7-dihydro-5H-benzo[7]annulene-3-carboxylic acid hydrochloride], for which the “% Degradation At 0.3 μM” value is 97% and the DC50 is 0.6 nM.
As for `Cc1cccc(C2=C(c3ccc(C=C4CN(CCCF)C4)cc3)c3ccc(C(=O)O)cc3CCC2)c1C` [Example 94, 8-(2,3-dimethylphenyl)-9-(4-((1-(3-fluoropropyl)azetidin-3-ylidene)methyl)phenyl)-6,7-dihydro-5H-benzo[7]annulene-3-carboxylic acid], the “% Degradation At 0.3 μM” value was determined as 96% and the DC50 turned out to be 0.2 nM.
In the case of `O=C(O)c1ccc2c(c1)CCCC(c1ccc(F)cc1C(F)(F)F)=C2c1ccc(C=C2CN(CCCF)C2)cc1` [Example 95, 8-(4-fluoro-2-(trifluoromethyl)phenyl)-9-(4-((1-(3-fluoropropyl)azetidin-3-ylidene)methyl)phenyl)-6,7-dihydro-5H-benzo[7]annulene-3-carboxylic acid], the “% Degradation At 0.3 μM” value came to 94% and the DC50 was determined as 0.2 nM.
In the same order, the values of `CCc1cc(F)ccc1C1=C(c2ccc(C=C3CN(CCCF)C3)cc2)c2ccc(C(=O)O)cc2CCC1` [Example 96, 8-(2-ethyl-4-fluorophenyl)-9-(4-((1-(3-fluoropropyl)azetidin-3-ylidene)methyl)phenyl)-6,7-dihydro-5H-benzo[7]annulene-3-carboxylic acid] are 98% and 0.2 nM.
With `Cc1cccc(C)c1C1=C(c2ccc(C=C3CN(CCCF)C3)cc2)c2ccc(C(=O)O)cc2CCC1` [Example 97, 8-(2,6-dimethylphenyl)-9-(4-((1-(3-fluoropropyl)azetidin-3-ylidene)methyl)phenyl)-6,7-dihydro-5H-benzo[7]annulene-3-carboxylic acid], the “% Degradation At 0.3 μM” value is given as 95% and the DC50 worked out at 0.2 nM.
In the case of `Cc1cc(F)ccc1C1=C(c2ccc(C=C3CN(CCCF)C3)cc2)c2ccc(C(=O)O)cc2CCC1` [Example 98, 8-(4-fluoro-2-methylphenyl)-9-(4-((1-(3-fluoropropyl)azetidin-3-ylidene)methyl)phenyl)-6,7-dihydro-5H-benzo[7]annulene-3-carboxylic acid], the “% Degradation At 0.3 μM” value was found to be 96% and the DC50 was 0.3 nM.
`Cc1ccccc1C1=C(c2ccc(C=C3CN(CCCF)C3)cc2)c2ccc(C(=O)O)cc2CCC1` [Example 99, 9-(4-((1-(3-fluoropropyl)azetidin-3-ylidene)methyl)phenyl)-8-(o-tolyl)-6,7-dihydro-5H-benzo[7]annulene-3-carboxylic acid]: the “% Degradation At 0.3 μM” value amounted to 95% and the DC50 is 0.3 nM.
Consider `CC(C)CC1=C(c2ccc(C=C3CN(CCCF)C3)cc2)c2ccc(C(=O)O)cc2CCC1` [Example 100, 9-(4-((1-(3-Fluoropropyl)azetidin-3-ylidene)methyl)phenyl)-8-isobutyl-6,7-dihydro-5H-benzo[7]annulene-3-carboxylic acid], for which the “% Degradation At 0.3 μM” value is 94% and the DC50 is 0.3 nM.
In the same order, the values of `Cl.O=C(O)c1ccc2c(c1)CCCC(c1ccc(Cl)cc1Cl)=C2c1ccc(C=C2CN(CCCF)C2)cc1F` [Example 101, 8-(2,4-dichlorophenyl)-9-(2-fluoro-4-((1-(3-fluoropropyl)azetidin-3-ylidene)methyl)phenyl)-6,7-dihydro-5H-benzo[7]annulene-3-carboxylic acid hydrochloride] are 93% and 0.4 nM.
In the case of `CC(=C1CN(CCCF)C1)c1ccc(C2=C(c3ccc(Cl)cc3Cl)CCCc3cc(C(=O)O)ccc32)cc1` [Example 102, 8-(2,4-Dichlorophenyl)-9-(4-(1-(1-(3-fluoropropyl)azetidin-3-ylidene)ethyl)phenyl)-6,7-dihydro-5H-benzo[7]annulene-3-carboxylic acid], the “% Degradation At 0.3 μM” value worked out at 89% and the DC50 is 0.3 nM.
Regarding `Cl.O=C(O)c1ccc2c(c1)CCCC(c1ccc(Cl)cc1Cl)=C2c1ccc(C=C2CN(CCCF)C2)c(F)c1` [Example 103, 8-(2,4-dichlorophenyl)-9-(3-fluoro-4-((1-(3-fluoropropyl)azetidin-3-ylidene)methyl)phenyl)-6,7-dihydro-5H-benzo[7]annulene-3-carboxylic acid hydrochloride], the “% Degradation At 0.3 μM” value was 92% and the DC50 is 0.2 nM.
For `Cc1cc(C2=C(c3ccc(Cl)cc3Cl)CCCc3cc(C(=O)O)ccc32)cc(C)c1C=C1CN(CCCF)C1.Cl` [Example 104, 8-(2,4-dichlorophenyl)-9-(4-((1-(3-fluoropropyl)azetidin-3-ylidene)methyl)-3,5-dimethylphenyl)-6,7-dihydro-5H-benzo[7]annulene-3-carboxylic acid hydrochloride], the “% Degradation At 0.3 μM” value is on record as 79% and the DC50 amounted to 4.9 nM.
With `Cl.O=C(O)c1ccc2c(c1)CCCC(c1ccc(Cl)cc1Cl)=C2c1cc(F)c(C=C2CN(CCCF)C2)c(F)c1` [Example 105, 8-(2,4-dichlorophenyl)-9-(3,5-difluoro-4-((1-(3-fluoropropyl)azetidin-3-ylidene)methyl)phenyl)-6,7-dihydro-5H-benzo[7]annulene-3-carboxylic acid], the “% Degradation At 0.3 μM” value turned out to be 94% and the DC50 was 0.1 nM.
With `Cl.O=C(O)c1ccc2c(c1)CCC(c1ccc(Cl)cc1Cl)=C2c1ccc(C=C2CN(CCCF)C2)cc1` [Example 106, 6-(2,4-dichlorophenyl)-5-(4-((1-(3-fluoropropyl)azetidin-3-ylidene)methyl)phenyl)-7,8-dihydronaphthalene-2-carboxylic acid hydrochloride], the “% Degradation At 0.3 μM” value was 93% and the DC50 stood at 1 nM.
Consider `O=C(O)c1ccc2c(c1)CCCC(c1cccc(Cl)c1C(F)(F)F)=C2c1ccc(C=C2CN(CCC(F)(F)F)C2)cc1` [Example 107, 8-(3-chloro-2-(trifluoromethyl)phenyl)-9-(4-((1-(3,3,3-trifluoropropyl)azetidin-3-ylidene)methyl)phenyl)-6,7-dihydro-5H-benzo[7]annulene-3-carboxylic acid], for which the “% Degradation At 0.3 μM” value amounted to 93% and the DC50 is 1.3 nM.
As to `O=C(O)c1ccc2c(c1)CCCC(c1ccc(F)cc1C(F)(F)F)=C2c1ccc(C=C2CN(CCC(F)(F)F)C2)cc1` [Example 108, 8-(4-fluoro-2-(trifluoromethyl)phenyl)-9-(4-((1-(3,3,3-trifluoropropyl)azetidin-3-ylidene)methyl)phenyl)-6,7-dihydro-5H-benzo[7]annulene-3-carboxylic acid], the “% Degradation At 0.3 μM” value is 92% and the DC50 came to 1.2 nM.
Regarding `O=C(O)c1ccc2c(c1)CCCC(c1ccc(Cl)cc1Cl)=C2c1ccc(C=C2CN(CCC(F)(F)F)C2)cc1` [Example 109, 8-(2,4-dichlorophenyl)-9-(4-((1-(3,3,3-trifluoropropyl)azetidin-3-ylidene)methyl)phenyl)-6,7-dihydro-5H-benzo[7]annulene-3-carboxylic acid], the “% Degradation At 0.3 μM” value came to 91% and the DC50 was 1.4 nM.
Consider `Cc1cccc(C2=C(c3ccc(C=C4CN(CCC(F)(F)F)C4)cc3)c3ccc(C(=O)O)cc3CCC2)c1C(F)(F)F` [Example 110, 8-(3-methyl-2-(trifluoromethyl)phenyl)-9-(4-((1-(3,3,3-trifluoropropyl)azetidin-3-ylidene)methyl)phenyl)-6,7-dihydro-5H-benzo[7]annulene-3-carboxylic acid], for which the “% Degradation At 0.3 μM” value is given as 93% and the DC50 is 2.9 nM.
In the case of `Cc1c(C2=C(c3ccc(C=C4CN(CCC(F)(F)F)C4)cc3)c3ccc(C(=O)O)cc3CCC2)ccc(Cl)c1F` [Example 111, 8-(4-chloro-3-fluoro-2-methylphenyl)-9-(4-((1-(3,3,3-trifluoropropyl)azetidin-3-ylidene)methyl)phenyl)-6,7-dihydro-5H-benzo[7]annulene-3-carboxylic acid], the “% Degradation At 0.3 μM” value amounted to 90% and the DC50 was found to be 1 nM.

These data come from patent US12612360B2 (Sanofi, priority 2020, dated 2026).
